The target of one assay is T1, PI3Kγ (Homo sapiens, UniProt P48736).
T1 construct: purchased Millipore Corporation 14-558-K
The assay can be described thus: PI3-Kinase HTRF assay, PI3Kγ. The format is biochemical. The conditions noted are these: bins Greater than 10 μM and Greater than 1 μM to 10 μM; 10 μM ATP, PIP2 at 10 μM. From the text: (§1) A PI3-Kinase HTRF® assay kit (cat No. 33-016) purchased from Millipore Corporation was used to screen compounds provided herein. This assay used specific, high affinity binding of the GRPI pleckstrin homology (PH) domain to PIP3, the product of a Class 1A or 1B PI3 Kinase acting on its physiological substrate PIP2. During the detection phase of the assay, a complex was generated between the GST-tagged PH domain and biotinylated short chain PIP3. The biotinylated PIP3 and the GST-tagged PH domain recruited fluorophores (Streptavidin-Allophycocyanin and Europium-labeled anti-GST respectively) to form the fluorescence resonance energy transfer (FRET) architecture, generating a stable time-resolved FRET signal. The FRET complex was disrupted in a competitive manner by non-biotinylated PIP3, a product formed in the PI3 Kinase assay.
(§2) PI3 Kinase α, β, γ and δ activity was assayed using the PI3 Kinase HTRF® assay kit (catalogue No. 33-016) purchased from Millipore Corporation. Purified recombinant PI3Kα (catalogue No. 14-602-K), PI3Kβ (catalogue No. 14-603-K), PI3Kγ (catalogue No. 14-558-K) and PI3Kδ (catalogue No. 14-604-K) were obtained from Millipore Corporation. Purified recombinant PI3K enzyme was used to catalyze the phosphorylation of phosphatidylinositol 4,5-bisphosphate (PIP2 at 10 μM) to phosphatidylinositol 3,4,5-trisphosphate (PIP3) in the presence of 10 μM ATP. The assay was carried out in 384-well format and detected using a Perkin Elmer EnVision Xcite Multilabel Reader. Emission ratios were converted into percent inhibitions and imported into GraphPad Prism software. The concentration necessary to achieve inhibition of enzyme activity by 50% (IC50) was calculated using concentrations ranging from 20 μM to 0.1 nM (12-point curve). IC50 values were determined using a nonlinear regression model available in GraphPad Prism 5. […]
On the technique in general: In TR-FRET formats the signal depends on donor and acceptor labels being close together.

The subject of a further assay is Balb/c splenic B cells. The assay can be described thus: B cell activation and proliferation assay. The class given is cell-based. The conditions noted are these: Mus musculus, Greater than 1 μM to 10 μM, read-out: B cell proliferation EC50. In a few lines: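 Balb/c splenic B cells were isolated by Ficoll gradient and magnetic separation, plated at 50.000 cells/well in RPMI/10% FBS, and pre-incubated with compound for 30 min at 37° C (0.2% DMSO). Cells were stimulated for 72 h with a cocktail of 10 μg/ml LPS or 5 μg/ml anti-mouse IgM F(ab′)2 plus 2 ng/ml IL4. Alamar Blue fluorescence (560Ex/590Em) after 5 h gave IC50 or EC50.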

Another assay deals with T2, PI3Kδ (Homo sapiens, UniProt O00329).
T2 construct: purchased Millipore Corporation 14-604-K
T2 sequence (O00329 whole entry): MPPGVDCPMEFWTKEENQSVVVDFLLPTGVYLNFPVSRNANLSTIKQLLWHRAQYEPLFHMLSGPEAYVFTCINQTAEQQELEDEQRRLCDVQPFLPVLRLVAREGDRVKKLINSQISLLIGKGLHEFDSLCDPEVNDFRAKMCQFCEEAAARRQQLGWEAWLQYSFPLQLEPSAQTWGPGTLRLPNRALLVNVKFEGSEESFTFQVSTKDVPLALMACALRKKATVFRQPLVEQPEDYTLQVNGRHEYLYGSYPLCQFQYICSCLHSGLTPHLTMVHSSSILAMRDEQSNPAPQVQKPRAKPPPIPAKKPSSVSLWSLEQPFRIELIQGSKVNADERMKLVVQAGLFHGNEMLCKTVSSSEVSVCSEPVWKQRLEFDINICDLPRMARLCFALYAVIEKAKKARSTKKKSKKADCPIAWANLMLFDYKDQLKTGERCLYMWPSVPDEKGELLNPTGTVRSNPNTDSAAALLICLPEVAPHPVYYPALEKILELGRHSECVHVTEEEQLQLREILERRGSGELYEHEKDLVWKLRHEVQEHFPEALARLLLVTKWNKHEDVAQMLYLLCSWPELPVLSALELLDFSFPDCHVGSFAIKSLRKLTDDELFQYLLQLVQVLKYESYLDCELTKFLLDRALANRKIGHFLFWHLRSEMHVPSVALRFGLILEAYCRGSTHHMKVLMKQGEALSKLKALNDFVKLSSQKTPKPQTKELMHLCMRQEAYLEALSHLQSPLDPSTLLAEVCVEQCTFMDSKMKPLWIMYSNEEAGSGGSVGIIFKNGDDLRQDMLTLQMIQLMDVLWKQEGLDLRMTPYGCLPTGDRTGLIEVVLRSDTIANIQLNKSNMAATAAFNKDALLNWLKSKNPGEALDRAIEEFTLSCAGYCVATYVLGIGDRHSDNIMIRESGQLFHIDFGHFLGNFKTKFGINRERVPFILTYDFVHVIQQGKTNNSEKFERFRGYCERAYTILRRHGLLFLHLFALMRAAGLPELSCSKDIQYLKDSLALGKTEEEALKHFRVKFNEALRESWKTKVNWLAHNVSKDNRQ
T2 sequence (P27986 whole entry partner): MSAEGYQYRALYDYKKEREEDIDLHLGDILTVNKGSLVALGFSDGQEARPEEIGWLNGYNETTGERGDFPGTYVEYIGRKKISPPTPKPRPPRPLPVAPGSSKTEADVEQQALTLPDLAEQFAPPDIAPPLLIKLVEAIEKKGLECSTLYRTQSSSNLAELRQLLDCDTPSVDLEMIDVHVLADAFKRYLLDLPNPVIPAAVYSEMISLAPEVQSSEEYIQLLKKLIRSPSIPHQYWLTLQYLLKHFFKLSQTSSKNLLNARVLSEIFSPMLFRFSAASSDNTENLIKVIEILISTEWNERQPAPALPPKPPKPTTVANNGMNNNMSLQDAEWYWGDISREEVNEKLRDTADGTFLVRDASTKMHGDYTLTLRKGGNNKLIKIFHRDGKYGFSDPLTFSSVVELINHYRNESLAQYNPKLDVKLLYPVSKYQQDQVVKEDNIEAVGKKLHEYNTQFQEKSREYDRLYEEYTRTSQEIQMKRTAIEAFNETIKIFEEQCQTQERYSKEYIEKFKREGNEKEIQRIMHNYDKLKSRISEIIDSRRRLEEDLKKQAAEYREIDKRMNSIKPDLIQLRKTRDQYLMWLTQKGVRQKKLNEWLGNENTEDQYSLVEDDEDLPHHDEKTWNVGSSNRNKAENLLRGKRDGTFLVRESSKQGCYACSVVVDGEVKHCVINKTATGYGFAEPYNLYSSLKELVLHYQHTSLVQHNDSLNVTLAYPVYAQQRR
The experiment in a line: PI3-Kinase HTRF assay, PI3Kδ. The class given is biochemical. The conditions noted are these: bins Greater than 10 μM and Greater than 1 μM to 10 μM; 10 μM ATP, PIP2 at 10 μM.
Text: as §1, §2

Another assay addresses T3, PI3Kβ (Homo sapiens, UniProt P42338).
T3 construct: purchased Millipore Corporation 14-603-K
The experiment in a line: PI3-Kinase HTRF assay, PI3Kβ. The class given is biochemical. Conditions: bins Greater than 10 μM and Greater than 1 μM to 10 μM; 10 μM ATP, PIP2 at 10 μM. The method in brief: (§3)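 Purified recombinant human PI3Kα, β, γ or δ (0.25-0.3 μg/ml) preincubated 15 min at room temperature with compound (2% DMSO) and 10 μM PIP2, then reacted 1 h with 10 μM ATP. PIP3 product detected by competitive HTRF (GST-PH domain/biotin-PIP3); IC50 from 12-point curves, 20 μM to 0.1 nM, by nonlinear regression.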

The subject of assay [1] is phospho-AKT in RAJI cells (PI3Kδ). The assay can be described thus: PI3Kδ selective assay, phospho-AKT in RAJI cells. The format is cell-based. Conditions: RAJI cells stimulated with anti-human IgM; read-out: IC50 for phospho-AKT, RAJI cell model. From the text: A compound's ability in selectively inhibiting PI3Kδ can be assessed using RAJI cells, i.e., B lymphocyte cells derived from lymphoma patients. Briefly, serum-starved RAJI cells are stimulated with anti-human IgM, thereby causing signaling through the B-cell receptors, as described in, for example, He et al., Leukemia Research (2009) 33: 798-802. B-cell receptor signaling is important for the activation, differentiation, and survival of B cells and certain B-cell derived cancers. Reduction of phospho-AKT is indicative of compounds that may inhibit B-cell proliferation and function in certain diseases. By monitoring the reduction of phospho-AKT in stimulated RAJI cells (using for example, phospho-AKT antibodies), a compound's potential efficacy in selectively inhibiting PI3Kδ can be assessed.

In assay [2] the test system is phospho-AKT in RAW 264.7 cells (PI3Kγ). The assay can be described thus: PI3Kγ selective assay, phospho-AKT in RAW 264.7 cells. The format is cell-based. Conditions: Mus musculus, RAW264.7, stimulated with C5a, read-out: IC50 for phospho-AKT, RAW 264.7 cell model. From the text: A compound's ability in selectively inhibiting PI3Kγ can be assessed using RAW264.7 macrophages. Briefly, serum-starved PAW264.7 cells are stimulated with a known GPCR agonist C5a. (See, e.g., Camps et al., Nature Medicine (2005) 11(9): 936-943). Cells can be treated with test compounds prior to, simultaneously with, or subsequent to the stimulation by C5a. RAW 264.7 cells respond to the complement component fragment C5a through activation of the C5a receptor, and the C5a receptor activates macrophages and induces cell migration. Test compounds' ability to inhibit C5a-mediated AKT phosphorylation is indicative of selective inhibition of PI3Kγ. Thus, by monitoring the reduction of phospho-AKT in stimulated RAW 264.7 cells (using for example, phospho-AKT antibodies), a compound's potential efficacy in selectively inhibiting PI3Kγ can be assessed.

The target of a further assay is T4, PI3Kα (Homo sapiens, UniProt P42336).
T4 construct: purchased Millipore Corporation 14-602-K
T4 sequence (P42336 whole entry): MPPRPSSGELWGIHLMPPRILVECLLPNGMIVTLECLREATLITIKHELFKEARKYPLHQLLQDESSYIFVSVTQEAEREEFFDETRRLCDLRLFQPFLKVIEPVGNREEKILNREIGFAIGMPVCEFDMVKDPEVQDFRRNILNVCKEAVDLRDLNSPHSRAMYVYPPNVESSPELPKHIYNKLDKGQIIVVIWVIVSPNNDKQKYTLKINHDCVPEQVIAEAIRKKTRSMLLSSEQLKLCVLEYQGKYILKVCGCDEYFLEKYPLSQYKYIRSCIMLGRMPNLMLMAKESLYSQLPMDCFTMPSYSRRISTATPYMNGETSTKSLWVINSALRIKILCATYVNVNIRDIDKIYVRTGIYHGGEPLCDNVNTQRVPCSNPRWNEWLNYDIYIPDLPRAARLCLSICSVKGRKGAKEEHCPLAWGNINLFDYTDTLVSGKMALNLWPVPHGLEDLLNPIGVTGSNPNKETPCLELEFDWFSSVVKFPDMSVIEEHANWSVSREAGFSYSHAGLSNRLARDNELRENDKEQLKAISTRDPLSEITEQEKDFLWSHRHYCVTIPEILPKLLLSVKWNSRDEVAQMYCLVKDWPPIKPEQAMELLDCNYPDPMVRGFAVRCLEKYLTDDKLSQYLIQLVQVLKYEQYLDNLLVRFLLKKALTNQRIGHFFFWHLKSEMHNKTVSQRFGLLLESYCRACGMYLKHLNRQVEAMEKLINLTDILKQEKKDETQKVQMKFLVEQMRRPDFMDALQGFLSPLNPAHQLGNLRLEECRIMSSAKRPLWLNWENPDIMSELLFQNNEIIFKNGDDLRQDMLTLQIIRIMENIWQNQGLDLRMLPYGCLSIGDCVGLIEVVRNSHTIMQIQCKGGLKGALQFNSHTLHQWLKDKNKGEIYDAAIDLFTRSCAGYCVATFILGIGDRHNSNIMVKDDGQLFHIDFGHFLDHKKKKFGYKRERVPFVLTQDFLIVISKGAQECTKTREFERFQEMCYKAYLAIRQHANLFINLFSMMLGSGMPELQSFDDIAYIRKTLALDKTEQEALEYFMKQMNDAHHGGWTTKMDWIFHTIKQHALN
T4 sequence (P27986 whole entry partner): as the sequence (P27986 whole entry partner) above
The assay can be described thus: PI3-Kinase HTRF assay, PI3Kα. The class given is biochemical. Conditions: bins Greater than 10 μM and Greater than 1 μM to 10 μM; 10 μM ATP, PIP2 at 10 μM; read-out: IC50 P13Kα. The method in brief:
as §3

[3] abbreviates: ranges less than 100 nM and between 100 nM and 1 μM (given as 100-1000).

This is an account of results in patent publication US8785470B2, “Heterocyclic compounds and uses thereof” (Infinity Pharmaceuticals, Inc., priority 2011, dated 2014).

Read-outs that look alike come from different tables or passages of the source.

T1 sequence (P48736 whole entry): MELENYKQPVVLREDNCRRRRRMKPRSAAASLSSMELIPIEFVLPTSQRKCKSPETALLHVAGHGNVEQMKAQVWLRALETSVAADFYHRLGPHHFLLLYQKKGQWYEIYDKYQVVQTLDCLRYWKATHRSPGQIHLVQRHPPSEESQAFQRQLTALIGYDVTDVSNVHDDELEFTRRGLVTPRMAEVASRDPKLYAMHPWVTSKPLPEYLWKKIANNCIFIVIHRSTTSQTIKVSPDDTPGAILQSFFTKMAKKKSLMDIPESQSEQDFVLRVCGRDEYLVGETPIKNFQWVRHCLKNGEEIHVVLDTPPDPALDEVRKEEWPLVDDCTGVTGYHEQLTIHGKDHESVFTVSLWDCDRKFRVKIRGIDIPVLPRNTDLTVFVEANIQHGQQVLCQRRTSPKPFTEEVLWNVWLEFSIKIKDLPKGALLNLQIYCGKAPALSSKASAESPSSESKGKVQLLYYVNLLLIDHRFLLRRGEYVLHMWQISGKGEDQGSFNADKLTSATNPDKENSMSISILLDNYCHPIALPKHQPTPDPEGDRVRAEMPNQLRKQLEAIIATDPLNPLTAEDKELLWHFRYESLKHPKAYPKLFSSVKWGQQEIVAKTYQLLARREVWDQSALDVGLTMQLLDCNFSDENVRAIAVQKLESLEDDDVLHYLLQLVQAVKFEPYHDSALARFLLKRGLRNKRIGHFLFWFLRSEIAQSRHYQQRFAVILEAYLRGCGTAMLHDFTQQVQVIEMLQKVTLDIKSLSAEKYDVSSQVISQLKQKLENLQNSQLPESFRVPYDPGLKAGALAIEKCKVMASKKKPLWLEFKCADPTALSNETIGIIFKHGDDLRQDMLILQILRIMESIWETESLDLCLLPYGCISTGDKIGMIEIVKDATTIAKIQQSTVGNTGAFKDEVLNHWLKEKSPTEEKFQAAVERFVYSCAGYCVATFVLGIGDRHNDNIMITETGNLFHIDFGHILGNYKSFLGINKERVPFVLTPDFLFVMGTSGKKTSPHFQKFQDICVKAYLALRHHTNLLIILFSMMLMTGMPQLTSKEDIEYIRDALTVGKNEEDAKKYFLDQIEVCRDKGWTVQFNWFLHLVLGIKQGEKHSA
T3 sequence (P42338 whole entry): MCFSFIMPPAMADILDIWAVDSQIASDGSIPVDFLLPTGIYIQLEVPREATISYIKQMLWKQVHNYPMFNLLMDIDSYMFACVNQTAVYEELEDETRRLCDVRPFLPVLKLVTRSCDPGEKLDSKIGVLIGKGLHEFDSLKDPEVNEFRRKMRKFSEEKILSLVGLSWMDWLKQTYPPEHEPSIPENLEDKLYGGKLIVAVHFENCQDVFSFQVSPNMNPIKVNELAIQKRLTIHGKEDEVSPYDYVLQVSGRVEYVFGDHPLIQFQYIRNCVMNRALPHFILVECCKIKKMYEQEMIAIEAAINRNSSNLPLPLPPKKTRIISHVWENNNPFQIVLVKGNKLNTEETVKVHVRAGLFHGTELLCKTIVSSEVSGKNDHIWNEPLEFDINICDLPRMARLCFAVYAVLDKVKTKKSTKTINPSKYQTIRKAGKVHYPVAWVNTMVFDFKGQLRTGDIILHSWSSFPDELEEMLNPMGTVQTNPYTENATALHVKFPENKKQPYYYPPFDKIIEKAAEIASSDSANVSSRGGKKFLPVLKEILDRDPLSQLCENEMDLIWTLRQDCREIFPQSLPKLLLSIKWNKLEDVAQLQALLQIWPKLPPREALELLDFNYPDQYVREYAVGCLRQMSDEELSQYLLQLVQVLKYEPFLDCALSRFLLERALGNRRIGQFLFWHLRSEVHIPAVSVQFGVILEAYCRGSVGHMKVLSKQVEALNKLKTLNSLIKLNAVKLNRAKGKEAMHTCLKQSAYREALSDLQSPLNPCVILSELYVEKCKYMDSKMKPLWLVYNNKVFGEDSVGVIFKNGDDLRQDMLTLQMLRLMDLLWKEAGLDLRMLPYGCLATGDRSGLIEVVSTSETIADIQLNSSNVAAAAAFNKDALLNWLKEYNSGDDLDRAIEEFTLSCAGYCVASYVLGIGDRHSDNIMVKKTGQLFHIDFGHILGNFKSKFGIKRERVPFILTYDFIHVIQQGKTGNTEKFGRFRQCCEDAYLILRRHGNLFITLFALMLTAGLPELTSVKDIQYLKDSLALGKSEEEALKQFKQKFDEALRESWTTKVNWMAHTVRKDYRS
T3 sequence (P27986 whole entry partner): as the sequence (P27986 whole entry partner) above

Regarding `C[C@H](Nc1nc(Cl)ncc1[N+](=O)[O-])c1cc2cccc(Cl)c2c(=O)n1-c1ccccc1` [Compound 75, (S)-8-chloro-3-(1-(2-chloro-5-nitropyrimidin-4-ylamino)ethyl)-2-phenylisoquinolin-1(2H)-one], at PI3Kγ, the IC50 (as a rule, the concentration needed to halve the response being measured) was 1 to 10 µM.
The molecule `C[C@H](Nc1cc(N)ncn1)c1cc2cccc(Cl)c2c(=O)n1-c1ccccc1` [Compound 78, (S)-3-(1-(6-aminopyrimidin-4-ylamino)ethyl)-8-chloro-2-phenylisoquinolin-1(2H)-one] yielded a concentration for half-maximal inhibition (IC50) against PI3Kγ of 1 to 10 µM.
In the case of `C[C@H](Nc1nc(N)ncc1-c1ccccc1)c1cc2cccc(Cl)c2c(=O)n1-c1ccccc1` [Compound 82, (S)-3-(1-(2-amino-5-phenylpyrimidin-4-ylamino)ethyl)-8-chloro-2-phenylisoquinolin-1(2H)-one], the EC50 in the assay on Balb/c splenic B cells was in the range of 1 to 10 µM. This molecule yielded an IC50 against PI3Kδ of 1 to 10 µM.
`C[C@H](Nc1nc(N)ncc1S(C)(=O)=O)c1cc2cccc(Cl)c2c(=O)n1-c1ccccc1` [Compound 85, (S)-3-(1-(2-amino-5-(methylsulfonyl)pyrimidin-4-ylamino)ethyl)-8-chloro-2-phenylisoquinolin-1(2H)-one] gave an IC50 against PI3Kδ of 1 to 10 µM.
In the case of `C[C@H](Nc1nc(N)ncc1C#N)c1cc2cccc(Cl)c2c(=O)n1C1CC1` [Compound 104], the IC50 on PI3Kδ was 1 to 10 µM; against PI3Kβ, 1 to 10 µM; in assay [1] it was < 100 nM; in assay [2] (setting [3]), 100 to 1000 nM.
`COc1cccc2cc([C@H](C)Nc3nc(N)ncc3C#N)n(-c3ccccc3)c(=O)c12` [Compound 148]: on PI3Kδ, the half-inhibitory concentration (IC50) was in the range of 1 to 10 µM.
The molecule `COc1cc(-c2cccc3cc([C@H](C)Nc4nc(N)ncc4C(=O)N4CCC4)n(-c4ccccc4)c(=O)c23)ccn1` [Compound 154] gave an IC50 at PI3Kδ of 1 to 10 µM.
Still for that read-out and setting: with `CCN(C)C(=O)c1cnc(N)nc1N[C@@H](C)c1cc2cccc(-c3ccnc(OC)c3)c2c(=O)n1-c1ccccc1` [Compound 155] the figure was 1 to 10 µM.
On PI3Kγ, `CC(=O)Nc1cnc(N)nc1N[C@@H](C)c1cc2cccc(Cl)c2c(=O)n1-c1ccccc1` [Compound 173] displayed an IC50 of 1 to 10 µM.
For the molecule `C[C@H](Nc1nc(N)ncc1C#N)c1cc2cccc(-c3cncc(NS(C)(=O)=O)c3)c2c(=O)n1-c1ccccc1` [Compound 191], the IC50 against PI3Kδ is 1 to 10 µM; against PI3Kβ, 1 to 10 µM; at PI3Kα, 1 to 10 µM; in assay [1] it was < 100 nM; in assay [2] (range between 1 μM and 10 μM), 1000 to 10000 nM.
With `C[C@H](Nc1nc(N)ncc1C#N)c1cc2cccc(Cl)c2c(=O)n1-c1ccc(C#N)cc1` [Compound 220], the IC50 against PI3Kδ and on PI3Kβ was 1 to 10 µM each time.
On PI3Kδ, `COc1cnc(-c2cccc3cc([C@H](C)Nc4nc(N)ncc4C#N)n(-c4ccccc4)c(=O)c23)nc1` [Compound 228] gave an IC50 of 1 to 10 µM.
Turning to `C[C@H](Nc1nc(N)ncc1C#N)c1cc2cccc(Cl)c2c(=O)n1-c1ccc(F)c(F)c1` [Compound 270], the concentration for half-maximal inhibition (IC50) on PI3Kδ is 1 to 10 µM; against PI3Kβ, 1 to 10 µM; in assay [1], < 100 nM; in assay [2] (setting [3]) it was < 100 nM.
As to `C[C@H](Nc1nc(N)ncc1C#N)c1cc2cccc(Cl)c2c(=O)n1-c1c(F)cccc1F` [Compound 279], the IC50 against PI3Kδ was 1 to 10 µM; at PI3Kβ, 1 to 10 µM; in assay [1], < 100 nM; in assay [2] (setting [3]), < 100 nM.
Regarding `COc1cc(-n2c([C@H](C)Nc3nc(N)ncc3C#N)cc3cccc(Cl)c3c2=O)ccc1F` [Compound 291], the IC50 against PI3Kδ was 1 to 10 µM; against PI3Kβ, 1 to 10 µM; in assay [1] it was < 100 nM; in assay [2] (setting [3]), < 100 nM.
`COC(=O)c1cccc(-n2c([C@H](C)Nc3nc(N)ncc3C#N)cc3cccc(Cl)c3c2=O)c1` [Compound 316]: the IC50 against PI3Kγ is 1 to 10 µM; at PI3Kα, 1 to 10 µM; in assay [1], < 100 nM; in assay [2] (setting [3]) it was < 100 nM.
As to `COc1ncc(-c2cccc3cc([C@H](C)Nc4nc(N)ncc4C#N)n(-c4ccon4)c(=O)c23)cn1` [Compound 333], the IC50 was 1 to 10 µM at PI3Kγ; < 100 nM in assay [1]; 1000 to 10000 nM in assay [2] (range between 1 μM and 10 μM).
The matching figures for `Cc1ncc(-c2cccc3cc([C@H](C)Nc4nc(N)ncc4C#N)n(-c4ccon4)c(=O)c23)cn1` [Compound 334]: 1 to 10 µM, < 100 nM and 1000 to 10000 nM.
With `COc1ncc(-c2cccc3cc([C@H](C)Nc4ncnc(N)c4C#N)n(-c4ccon4)c(=O)c23)cn1` [Compound 337], the IC50 was 1 to 10 µM against PI3Kγ; 1 to 10 µM at PI3Kα; < 100 nM in assay [1]; 1000 to 10000 nM in assay [2] (range between 1 μM and 10 μM).
Take `C[C@H](Nc1nc(N)ncc1C#N)c1cc2cccc(-c3ccc(=O)n(C)c3)c2c(=O)n1-c1ccon1` [Compound 338]: the IC50 is 1 to 10 µM on PI3Kδ; 1 to 10 µM against PI3Kβ; 1 to 10 µM on PI3Kα; < 100 nM in assay [1]; 1000 to 10000 nM in assay [2] (range between 1 μM and 10 μM).
As to `C[C@H](Nc1ncnc(N)c1C#N)c1cc2cccc(Cl)c2c(C(=O)NC2CCOCC2)n1` [Compound 353], the IC50 at PI3Kγ was 1 to 10 µM; in assay [1] it was < 100 nM; in assay [2] (range between 1 μM and 10 μM) it was 1000 to 10000 nM.
With `C[C@H](Nc1nc(N)ncc1-c1cncc(S(C)(=O)=O)c1)c1cc2cccc(Cl)c2c(=O)n1-c1ccccc1` [Compound 401], the IC50 against PI3Kδ is 1 to 10 µM; on PI3Kβ it was 1 to 10 µM; on PI3Kα, 1 to 10 µM; in assay [1], < 100 nM; in assay [2] (setting [3]) it was 100 to 1000 nM.
Take `C[C@H](Nc1nc(N)ncc1-c1ccc(S(C)(=O)=O)nc1)c1cc2cccc(Cl)c2c(=O)n1-c1ccccc1` [Compound 402]: the half-inhibitory concentration (IC50) against PI3Kδ is 1 to 10 µM; against PI3Kβ it was 1 to 10 µM; in assay [1], < 100 nM; in assay [2] (range between 1 μM and 10 μM) it was 1000 to 10000 nM.
`C[C@H](Nc1cc(Cl)ncc1C#N)c1cc2cccc(Cl)c2c(=O)n1-c1ccccc1` [Compound 429] returned a concentration for half-maximal inhibition (IC50) on PI3Kδ of 1 to 10 µM.
For the molecule `C[C@H](Nc1nc(N)ncc1C(=O)N1CCC1)c1cc2cccc(Cl)c2c(=O)n1-c1ccccc1` [Compound 433], the IC50 against PI3Kδ fell in the range of 1 to 10 µM.
